Assay results reported in patent US9932381B2, “Exendin-4 derivatives as selective glucagon receptor agonists” (priority 2014, dated 2018).
Non-standard residues stand in square brackets, D forms with d. Residues, ends and D or L forms follow the SMILES beside them. Ala(4-thiazolyl) = N[C@@H](Cc1cscn1)C(=O)O; 1Nal = N[C@@H](Cc1cccc2ccccc12)C(=O)O; Nle = CCCC[C@H](N)C(=O)O

What was measured:
[1] = target: T1, human GLP-1 receptor (hGLP-1 R) (Homo sapiens, UniProt P43220); experiment: cAMP response (HTRF) of HEK-293 cells stably expressing human GLP-1 receptor; format: cell-based; details: Table 4
T1 construct: expressed in transfected cells; host or cells: HEK-293
Protocol: (§1) cAMP content of cells was determined using a kit from Cisbio Corp. (cat. no. 62AM4PEC) based on HTRF (Homogenous Time Resolved Fluorescence). For preparation, cells were split into T175 culture flasks and grown overnight to near confluency in medium (DMEM/10% FBS). Medium was then removed and cells washed with PBS lacking calcium and magnesium, followed by proteinase treatment with accutase (Sigma-Aldrich cat. no. A6964). Detached cells were washed and resuspended in assay buffer (1×HBSS; 20 mM HEPES, 0.1% BSA, 2 mM IBMX) and cellular density determined. They were then diluted to 400000 cells/ml and 25 μl-aliquots dispensed into the wells of 96-well plates. For measurement, 25 μl of test compound in assay buffer was added to the wells, followed by incubation for 30 minutes at room temperature. After addition of HTRF reagents diluted in lysis buffer (kit components), the plates were incubated for 1 hr, followed by measurement of the fluorescence ratio at 665/620 nm. In vitro potency of agonists was quantified by determining the concentrations that caused 50% activation of maximal response (EC50).

[2] = target: T2, human glucagon receptor (hGLUC R) (Homo sapiens, UniProt P47871); experiment: cAMP response (HTRF) of HEK-293 cells stably expressing human glucagon receptor; format: cell-based; details: Table 4; read-out: EC50 hGLUC R
T2 construct: expressed in transfected cells; host or cells: HEK-293
Protocol: as §1, with “temperature.” for “temperature. After addition of HTRF reagents diluted in lysis buffer (kit components), the plates were incubated for 1 hr, followed by measurement of the fluorescence ratio at 665/620 nm. In vitro potency of agonists was quantified by determining the concentrations that caused 50% activation of maximal response (EC50).”

T1 sequence (P43220 24-463): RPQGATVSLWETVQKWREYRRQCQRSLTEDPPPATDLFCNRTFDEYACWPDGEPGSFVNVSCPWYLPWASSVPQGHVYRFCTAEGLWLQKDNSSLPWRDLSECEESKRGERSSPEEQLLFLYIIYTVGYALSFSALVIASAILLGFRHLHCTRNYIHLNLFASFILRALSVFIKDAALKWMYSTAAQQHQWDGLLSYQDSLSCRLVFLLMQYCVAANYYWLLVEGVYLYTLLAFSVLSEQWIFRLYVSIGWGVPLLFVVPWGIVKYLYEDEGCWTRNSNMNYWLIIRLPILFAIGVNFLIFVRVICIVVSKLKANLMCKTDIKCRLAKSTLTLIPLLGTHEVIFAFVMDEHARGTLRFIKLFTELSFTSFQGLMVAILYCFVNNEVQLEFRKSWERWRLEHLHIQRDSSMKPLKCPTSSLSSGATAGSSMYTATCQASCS
T2 sequence (P47871 26-477): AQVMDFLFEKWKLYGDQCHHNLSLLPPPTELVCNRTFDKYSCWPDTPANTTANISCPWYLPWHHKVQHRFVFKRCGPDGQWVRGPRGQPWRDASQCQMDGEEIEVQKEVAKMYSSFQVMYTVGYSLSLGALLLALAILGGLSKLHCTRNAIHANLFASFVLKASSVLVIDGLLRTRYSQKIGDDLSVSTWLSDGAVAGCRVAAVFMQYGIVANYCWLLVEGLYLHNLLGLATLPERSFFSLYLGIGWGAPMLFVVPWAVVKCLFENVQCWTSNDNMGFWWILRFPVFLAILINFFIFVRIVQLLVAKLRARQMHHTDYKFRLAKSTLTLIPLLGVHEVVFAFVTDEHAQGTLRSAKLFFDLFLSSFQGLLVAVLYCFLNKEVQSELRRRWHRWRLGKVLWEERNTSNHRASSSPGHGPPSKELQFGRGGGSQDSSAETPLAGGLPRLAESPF

Q: For `CC[C@H](C)[C@H](NC(=O)[C@H](Cc1ccccc1)NC(=O)[C@H](CCC(=O)O)NC(=O)[C@H](CCC(N)=O)NC(=O)[C@H](C)NC(=O)[C@H](CCCNC(=N)N)NC(=O)[C@H](CCCNC(=N)N)NC(=O)[C@H](CO)NC(=O)[C@H](CCC(=O)O)NC(=O)[C@H](CC(C)C)NC(=O)[C@H](CCC(N)=O)NC(=O)[C@H](CCCCN)NC(=O)[C@H](CO)NC(=O)[C@H](CC(C)C)NC(=O)[C@H](CC(=O)O)NC(=O)[C@H](CO)NC(=O)[C@@H](NC(=O)[C@H](Cc1ccccc1)NC(=O)[C@@H](NC(=O)CNC(=O)[C@H](CCC(N)=O)NC(=O)[C@H](CO)NC(=O)[C@@H](N)Cc1cscn1)[C@@H](C)O)[C@@H](C)O)C(=O)N[C@@H](CCC(=O)O)C(=O)N[C@@H](Cc1c[nH]c2ccccc12)C(=O)N[C@@H](CC(C)C)C(=O)N[C@@H](CC(C)C)C(=O)N[C@@H](C)C(=O)NCC(=O)NCC(=O)N1CCC[C@H]1C(=O)N[C@@H](CCC(=O)O)C(=O)N[C@@H](CO)C(=O)NCC(=O)N[C@@H](C)C(=O)N1CCC[C@H]1C(=O)N1CCC[C@H]1C(=O)N1CCC[C@H]1C(=O)N[C@@H](CO)C(=O)O` [SEQ ID NO 4, Tza-SQGTFTSDLSKQLESRRAQEFIEWLLAGGPESGAPPPS-OH] (H-[Ala(4-thiazolyl)]SQGTFTSDLSKQLESRRAQEFIEWLLAGGPESGAPPPS-OH; N-terminus assumed), which EC50 [1] is on record?
A: 3.3 nM

Q: How did the EC50 [1] turn out when `CC[C@H](C)[C@H](NC(=O)[C@H](Cc1ccccc1)NC(=O)[C@H](CCC(=O)O)NC(=O)[C@H](CCC(N)=O)NC(=O)[C@H](C)NC(=O)[C@H](CCCNC(=N)N)NC(=O)[C@H](CCCNC(=N)N)NC(=O)[C@H](CO)NC(=O)[C@H](CCC(=O)O)NC(=O)[C@H](CC(C)C)NC(=O)[C@H](CCC(N)=O)NC(=O)[C@H](CCCCN)NC(=O)[C@H](CO)NC(=O)[C@@H](NC(=O)[C@H](CC(=O)O)NC(=O)[C@H](CO)NC(=O)[C@@H](NC(=O)[C@H](Cc1ccccc1)NC(=O)[C@@H](NC(=O)CNC(=O)[C@H](CCC(N)=O)NC(=O)[C@H](CO)NC(=O)[C@@H](N)Cc1cscn1)[C@@H](C)O)[C@@H](C)O)C(C)C)C(=O)N[C@@H](CCC(=O)O)C(=O)N[C@@H](Cc1c[nH]c2ccccc12)C(=O)N[C@@H](CC(C)C)C(=O)N[C@@H](CC(C)C)C(=O)N[C@@H](C)C(=O)N[C@H](C(=O)NCC(=O)N1CCC[C@H]1C(=O)N[C@@H](CCC(=O)O)C(=O)N[C@@H](CO)C(=O)NCC(=O)N[C@@H](C)C(=O)N1CCC[C@H]1C(=O)N1CCC[C@H]1C(=O)N1CCC[C@H]1C(=O)N[C@@H](CO)C(=O)O)[C@@H](C)O` [SEQ ID NO 7, Tza-SQGTFTSDVSKQLESRRAQEFIEWLLATGPESGAPPPS-OH] (H-[Ala(4-thiazolyl)]SQGTFTSDVSKQLESRRAQEFIEWLLATGPESGAPPPS-OH; N-terminus assumed) was run?
A: 4.19 nM

Q: What about the EC50 [2] of the same molecule?
A: 2.4 pM

Q: What does the source list for `CC[C@H](C)[C@H](NC(=O)[C@H](Cc1ccccc1)NC(=O)[C@H](CCC(=O)O)NC(=O)[C@H](CCC(N)=O)NC(=O)[C@H](C)NC(=O)[C@H](CCCNC(=N)N)NC(=O)[C@H](CCCNC(=N)N)NC(=O)[C@H](CO)NC(=O)[C@H](CCC(=O)O)NC(=O)[C@H](CC(C)C)NC(=O)[C@H](CCC(N)=O)NC(=O)[C@H](CCCCN)NC(=O)[C@H](CO)NC(=O)[C@@H](NC(=O)[C@H](CC(=O)O)NC(=O)[C@H](CO)NC(=O)[C@@H](NC(=O)[C@H](Cc1ccccc1)NC(=O)[C@@H](NC(=O)CNC(=O)[C@H](CCC(N)=O)NC(=O)[C@H](CO)NC(=O)[C@@H](N)Cc1cscn1)[C@@H](C)O)[C@@H](C)O)[C@@H](C)CC)C(=O)N[C@@H](CCC(=O)O)C(=O)N[C@@H](Cc1c[nH]c2ccccc12)C(=O)N[C@@H](CC(C)C)C(=O)N[C@@H](CC(C)C)C(=O)N[C@@H](C)C(=O)N[C@H](C(=O)NCC(=O)N1CCC[C@H]1C(=O)N[C@@H](CCC(=O)O)C(=O)N[C@@H](CO)C(=O)NCC(=O)N[C@@H](C)C(=O)N1CCC[C@H]1C(=O)N1CCC[C@H]1C(=O)N1CCC[C@H]1C(=O)N[C@@H](CO)C(=O)O)[C@@H](C)O` [SEQ ID NO 8, Tza-SQGTFTSDISKQLESRRAQEFIEWLLATGPESGAPPPS-OH]?
A: EC50 [1]: 5.8 nM; EC50 [2]: 2.2 pM

Q: `CC[C@H](C)[C@H](NC(=O)[C@H](Cc1ccccc1)NC(=O)[C@H](CCC(=O)O)NC(=O)[C@H](CCC(N)=O)NC(=O)[C@H](C)NC(=O)[C@H](CCCNC(=N)N)NC(=O)[C@H](CCCNC(=N)N)NC(=O)[C@H](CO)NC(=O)[C@H](CCC(=O)O)NC(=O)[C@H](CC(C)C)NC(=O)[C@H](CCC(N)=O)NC(=O)[C@H](CCCCN)NC(=O)[C@H](CO)NC(=O)[C@H](Cc1cccc2ccccc12)NC(=O)[C@H](CC(=O)O)NC(=O)[C@H](CO)NC(=O)[C@@H](NC(=O)[C@H](Cc1ccccc1)NC(=O)[C@@H](NC(=O)CNC(=O)[C@H](CCC(N)=O)NC(=O)[C@H](CO)NC(=O)[C@@H](N)Cc1cscn1)[C@@H](C)O)[C@@H](C)O)C(=O)N[C@@H](CCC(=O)O)C(=O)N[C@@H](Cc1c[nH]c2ccccc12)C(=O)N[C@@H](CC(C)C)C(=O)N[C@@H](CC(C)C)C(=O)N[C@@H](C)C(=O)N[C@H](C(=O)NCC(=O)N1CCC[C@H]1C(=O)N[C@@H](CCC(=O)O)C(=O)N[C@@H](CO)C(=O)NCC(=O)N[C@@H](C)C(=O)N1CCC[C@H]1C(=O)N1CCC[C@H]1C(=O)N1CCC[C@H]1C(=O)N[C@@H](CO)C(=O)O)[C@@H](C)O` [SEQ ID NO 11, Tza-S-Q-G-T-F-T-S-D-1Nal-SKQLESRRAQEFIEWLLATGPESGAPPPS-OH] (H-[Ala(4-thiazolyl)]SQGTFTSD[1Nal]SKQLESRRAQEFIEWLLATGPESGAPPPS-OH; N-terminus assumed) was tested. Which EC50 [1] did it give?
A: 11.7 nM

Q: Which EC50 [1] does the source give for `CCCC[C@H](NC(=O)[C@H](CCC(N)=O)NC(=O)[C@H](CCCCN)NC(=O)[C@H](CO)NC(=O)[C@H](CC(C)C)NC(=O)[C@H](CC(=O)O)NC(=O)[C@H](CO)NC(=O)[C@@H](NC(=O)[C@H](Cc1ccccc1)NC(=O)[C@@H](NC(=O)CNC(=O)[C@H](CCC(N)=O)NC(=O)[C@H](CO)NC(=O)[C@@H](N)Cc1cscn1)[C@@H](C)O)[C@@H](C)O)C(=O)N[C@@H](CCC(=O)O)C(=O)N[C@@H](CO)C(=O)N[C@@H](CCCNC(=N)N)C(=O)N[C@@H](CCCNC(=N)N)C(=O)N[C@@H](C)C(=O)N[C@@H](CCC(N)=O)C(=O)N[C@@H](CCC(=O)O)C(=O)N[C@@H](Cc1ccccc1)C(=O)N[C@H](C(=O)N[C@@H](CCC(=O)O)C(=O)N[C@@H](Cc1c[nH]c2ccccc12)C(=O)N[C@@H](CC(C)C)C(=O)N[C@@H](CC(C)C)C(=O)N[C@@H](C)C(=O)N[C@H](C(=O)NCC(=O)N1CCC[C@H]1C(=O)N[C@@H](CCC(=O)O)C(=O)N[C@@H](CO)C(=O)NCC(=O)N[C@@H](C)C(=O)N1CCC[C@H]1C(=O)N1CCC[C@H]1C(=O)N1CCC[C@H]1C(=O)N[C@@H](CO)C(=O)O)[C@@H](C)O)[C@@H](C)CC` [SEQ ID NO 16, Tza-S-Q-G-T-F-T-S-D-L-S-K-Q-Nle-ESRRAQEFIEWLLATGPESGAPPPS-OH] (H-[Ala(4-thiazolyl)]SQGTFTSDLSKQ[Nle]ESRRAQEFIEWLLATGPESGAPPPS-OH; N-terminus assumed) here?
A: 19.7 nM
